Experiment: Antioxidant activity assessed as concentration required to 50 % ABTS radical scavenging activity absorbance at 734 nm
Format: functional

Compound	Activity
Cc1c(C)c2c(c(C)c1O)CCC(C)(C(=O)O)O2 (stereo not given)	19 µM
COC(=O)/C=C/c1ccccc1	> 1000 µM
CCCCCCCC/C=C/CCCCCCCC(=O)OC[C@H](COC(=O)/C(N)=C/c1ccccc1)OC(=O)CCCCCCC/C=C/CCCCCCCC	11 µM
COC(=O)/C(N)=C/c1ccccc1	9.6 µM
COC(=O)C(=O)Cc1ccccc1	8.8 µM
